Test results taken from patent US10472356B2, “Bicyclic ketone sulfonamide compounds” (AMGEN INC., priority 2015, dated 2019).

Assays:
Format in all cases: cell-based
human Nav1.7 [1] = molecular target: T1, human Nav1.7 (Homo sapiens, UniProt Q15858); assay: Nav 1.7 In Vitro PatchXpress (PX) Assay; conditions: HEK 293 cells stably transfected with human Nav1.7; PatchXpress whole cell voltage clamp; partially inactivated state (holding potential yielding 20 to 50% inactivation); read-out: hNav1.7 PX IC50
T1 construct: expressed in transfected cells; host or cells: HEK293
T1 sequence (Q15858 whole entry): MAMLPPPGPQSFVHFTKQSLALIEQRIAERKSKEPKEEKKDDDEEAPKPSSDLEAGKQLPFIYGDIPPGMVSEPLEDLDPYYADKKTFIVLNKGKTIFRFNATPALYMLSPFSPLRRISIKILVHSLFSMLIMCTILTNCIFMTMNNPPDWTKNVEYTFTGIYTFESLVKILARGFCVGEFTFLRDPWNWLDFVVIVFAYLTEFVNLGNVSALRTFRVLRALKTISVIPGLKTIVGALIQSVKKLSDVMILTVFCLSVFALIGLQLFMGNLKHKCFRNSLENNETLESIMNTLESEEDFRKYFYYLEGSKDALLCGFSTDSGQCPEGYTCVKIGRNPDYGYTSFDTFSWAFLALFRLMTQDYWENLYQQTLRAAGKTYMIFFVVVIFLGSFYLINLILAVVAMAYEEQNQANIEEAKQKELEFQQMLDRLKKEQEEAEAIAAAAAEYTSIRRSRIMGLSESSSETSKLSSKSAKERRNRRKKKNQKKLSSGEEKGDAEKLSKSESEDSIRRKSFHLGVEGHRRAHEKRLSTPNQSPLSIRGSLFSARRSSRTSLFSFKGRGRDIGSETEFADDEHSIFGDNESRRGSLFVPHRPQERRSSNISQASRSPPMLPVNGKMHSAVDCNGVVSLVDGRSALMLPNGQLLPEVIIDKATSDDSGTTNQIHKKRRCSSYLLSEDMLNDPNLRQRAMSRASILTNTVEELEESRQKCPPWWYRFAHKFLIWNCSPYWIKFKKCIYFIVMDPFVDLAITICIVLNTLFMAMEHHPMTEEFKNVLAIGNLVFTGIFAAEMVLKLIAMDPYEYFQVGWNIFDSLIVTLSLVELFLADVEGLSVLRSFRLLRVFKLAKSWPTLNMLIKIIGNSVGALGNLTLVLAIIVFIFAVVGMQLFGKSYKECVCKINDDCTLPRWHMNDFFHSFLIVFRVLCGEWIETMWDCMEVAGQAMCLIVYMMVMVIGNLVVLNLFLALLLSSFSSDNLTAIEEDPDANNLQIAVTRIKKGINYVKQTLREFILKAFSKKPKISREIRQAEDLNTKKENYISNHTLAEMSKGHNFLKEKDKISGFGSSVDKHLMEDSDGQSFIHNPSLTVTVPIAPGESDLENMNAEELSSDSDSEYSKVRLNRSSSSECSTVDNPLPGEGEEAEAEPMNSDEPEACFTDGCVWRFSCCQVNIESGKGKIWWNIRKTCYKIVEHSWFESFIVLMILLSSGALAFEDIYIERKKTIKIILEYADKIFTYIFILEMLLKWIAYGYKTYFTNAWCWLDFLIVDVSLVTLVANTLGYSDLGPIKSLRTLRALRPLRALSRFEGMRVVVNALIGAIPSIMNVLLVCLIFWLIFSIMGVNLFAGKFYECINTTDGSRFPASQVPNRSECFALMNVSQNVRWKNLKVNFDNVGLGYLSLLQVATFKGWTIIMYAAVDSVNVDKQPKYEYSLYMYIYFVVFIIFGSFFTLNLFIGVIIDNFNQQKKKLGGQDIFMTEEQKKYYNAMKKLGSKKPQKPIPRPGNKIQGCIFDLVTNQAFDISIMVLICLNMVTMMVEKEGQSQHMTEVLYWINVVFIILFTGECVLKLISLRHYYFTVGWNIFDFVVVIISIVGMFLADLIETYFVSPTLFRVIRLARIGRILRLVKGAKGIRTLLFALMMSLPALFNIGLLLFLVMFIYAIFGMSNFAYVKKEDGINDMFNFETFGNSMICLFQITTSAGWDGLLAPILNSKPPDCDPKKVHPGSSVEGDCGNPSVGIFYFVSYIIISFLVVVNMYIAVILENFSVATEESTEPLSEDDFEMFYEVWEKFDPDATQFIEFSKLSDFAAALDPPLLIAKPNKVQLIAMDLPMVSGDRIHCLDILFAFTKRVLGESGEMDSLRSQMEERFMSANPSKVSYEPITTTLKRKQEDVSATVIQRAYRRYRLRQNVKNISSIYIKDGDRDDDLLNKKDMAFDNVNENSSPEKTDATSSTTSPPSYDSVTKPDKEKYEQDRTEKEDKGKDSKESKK
Method in brief: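 Whole-cell voltage clamp on HEK 293 cells stably expressing human Nav1.7 (automated patch), holding potential giving 20–50% inactivation; 20 ms pulses to −10 mV at 0.1 Hz. Single compound concentration applied 3 min, peak current inhibition measured; IC50 fitted from 3–5 cells per concentration.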

human Nav1.7 [2] = molecular target: T1, human Nav1.7; assay: Nav 1.7 IWQ In Vitro Assay (IonWorks Quattro); conditions: HEK293 cells stably transfected with human Nav 1.7; IonWorks Quattro population patch-clamp; 26th pulse to −20 mV, 5 Hz; cells unclamped 5 to 8 minutes with compound; read-out: hNav1.7 IWQ IC50
Protocol: Nav 1.7 or Nav 1.5 IWQ In Vitro Assay
HEK293 cells stably transfected with either human Nav 1.7 or human Nav 1.5 were recorded in population patch-clamp mode with the IonWorks® Quattro automated electrophysiology system (Molecular Devices, LLC, Sunnyvale, Calif.). Cells were voltage clamped to −110 mV for three seconds (Nav 1.7) or half a second (Nav 1.5) and sodium currents were elicited by a train of 26 depolarizations of 150 msec duration to −20 mV (Nav 1.7) or 0 mV (Nav 1.5) at a frequency of 5 Hz. Cells were then left unclamped for a period of 5 to 8 minutes while a single concentration of test compound was added. Following this compound incubation period, cells were then reclamped to −110 mV for three seconds (Nav1.7) or half a second (Nav1.5) to recover unbound channels and put through the same 26 pulse voltage protocol as above. Peak inward current during the 26th pulse to −20 mV (Nav 1.7) or 0 mV (Nav 1.5) in the presence of compound was divided by the peak inward current evoked by the 26th pulse to −20 mV (Nav1.7) or 0 mV (Nav1.5) in the absence of compound to determine percent inhibition. Concentration-response curves of percent.

human Nav1.7 [3] = molecular target: T1, human Nav1.7; assay: Nav 1.7 IWB In Vitro Assay (IonWorks Barracuda); conditions: HEK293 cells stably transfected with human Nav 1.7; IonWorks Barracuda population patch-clamp; cells clamped to −20 mV for 4 minutes with compound; 26th pulse; read-out: hNav1.7 IWB IC50
Method in brief: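 Population patch clamp of HEK293 cells stably expressing human Nav 1.7: 26 pulses to −20 mV (150 ms, 5 Hz) from −110 mV, then 4 min at −20 mV with compound, 3 s recovery at −110 mV and the train repeated. % inhibition of 26th-pulse peak current vs no compound; IC50 from concentration-response curves.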

Structure (SMILES)	IC50 (human Nav1.7 [1])	IC50 (human Nav1.7 [2])	IC50 (human Nav1.7 [3])
COc1cc(-c2cc(OC)c(-n3c4c(ccc3=O)CN(S(=O)(=O)Nc3cccnn3)CC4)cc2F)ccc1Cl (single isomer, unassigned) [Example 2-P, P-1-(4′-chloro-2-fluoro-3′,5-dimethoxy-4-biphenylyl)-2-oxo-N-3-pyridazinyl-1,5,7,8-tetrahydro-1,6-naphthyridine-6(2H)-sulfonamide]	0.259 µM	< 0.019 µM	0.0066 µM
COc1cc(-c2cc(F)cc(F)c2)c(F)cc1-n1c2c(ccc1=O)[C@H](C)N(S(=O)(=O)Nc1ccon1)CC2 (single isomer, unassigned) [Example 3-B-P]	2.08 µM	0.224 µM	0.197 µM
COc1cc(-c2cc(F)cc(Cl)c2)c(F)cc1-n1c2c(ccc1=O)CN(S(=O)(=O)Nc1cc(C)ncn1)CC2 (single isomer, unassigned) [Example 4-P, P-1-(3′-chloro-2,5′-difluoro-5-methoxy-4-biphenylyl)-N-(6-methyl-4-pyrimidinyl)-2-oxo-1,5,7,8-tetrahydro-1,6-naphthyridine-6(2H)-sulfonamide]	0.0784 µM	0.0243 µM	0.0318 µM
COc1cc(-c2cc(F)cc(Cl)c2)c(F)cc1-n1c2c(ccc1=O)CN(S(=O)(=O)Nc1ncns1)CC2 (single isomer, unassigned) [Example 5-P, P-1-(3′-chloro-2,5′-difluoro-5-methoxy-4-biphenylyl)-2-oxo-N-1,2,4-thiadiazol-5-yl-1,5,7,8-tetrahydro-1,6-naphthyridine-6(2H)-sulfonamide]	0.0123 µM	0.0016 µM	0.0015 µM
COc1cc(-c2cc(F)cc(Cl)c2)c(F)cc1-n1c2c(ccc1=O)CN(S(=O)(=O)Nc1ccnc(C)n1)CC2 (single isomer, unassigned) [Example 6-P, P-1-(3′-chloro-2,5′-difluoro-5-methoxy-4-biphenylyl)-N-(2-methyl-4-pyrimidinyl)-2-oxo-1,5,7,8-tetrahydro-1,6-naphthyridine-6(2H)-sulfonamide]	0.269 µM	0.0254 µM	0.0648 µM
COc1cc(-c2cc(F)cc(Cl)c2)ccc1-n1c2c(ccc1=O)CN(S(=O)(=O)Nc1ccon1)CC2 (single isomer, unassigned) [Example 7-P, P-1-(3′-chloro-5′-fluoro-3-methoxy-4-biphenylyl)-N-3-isoxazolyl-2-oxo-1,5,7,8-tetrahydro-1,6-naphthyridine-6(2H)-sulfonamide]	0.0763 µM	0.0078 µM	0.0143 µM
COc1cc(-c2cc(Cl)ccc2C)c(F)cc1-n1c2c(ccc1=O)CN(S(=O)(=O)Nc1ccon1)CC2 (single isomer, unassigned) [Example 9-P, P-1-(5′-chloro-2-fluoro-5-methoxy-2′-methyl-4-biphenylyl)-N-3-isoxazolyl-2-oxo-1,5,7,8-tetrahydro-1,6-naphthyridine-6(2H)-sulfonamide]	0.018 µM	0.0021 µM	0.0031 µM
COc1cc(-c2cc(F)cc(Cl)c2)c(F)cc1-n1c2c(ccc1=O)CN(S(=O)(=O)Nc1ccccn1)CC2 (single isomer, unassigned) [Example 11-P, P-1-(3′-chloro-2,5′-difluoro-5-methoxy-4-biphenylyl)-2-oxo-N-2-pyridinyl-1,5,7,8-tetrahydro-1,6-naphthyridine-6(2H)-sulfonamide]	0.166 µM	0.054 µM	0.0553 µM
COc1cc(-c2cc(F)cc(Cl)c2)c(F)cc1-n1c2c(ccc1=O)CN(S(=O)(=O)Nc1ccc(F)cn1)CC2 (single isomer, unassigned) [Example 12-P, P-1-(3′-chloro-2,5′-difluoro-5-methoxy-4-biphenylyl)-N-(5-fluoro-2-pyridinyl)-2-oxo-1,5,7,8-tetrahydro-1,6-naphthyridine-6(2H)-sulfonamide]	0.0445 µM	0.0566 µM	0.0525 µM
COc1cc(-c2cc(F)cc(Cl)c2)c(F)cc1-n1c2c(ccc1=O)CN(S(=O)(=O)Nc1cccc(F)n1)CC2 (single isomer, unassigned) [Example 13-P, P-1-(3′-chloro-2,5′-difluoro-5-methoxy-4-biphenylyl)-N-(6-fluoro-2-pyridinyl)-2-oxo-1,5,7,8-tetrahydro-1,6-naphthyridine-6(2H)-sulfonamide]	0.0279 µM	0.0284 µM	0.0271 µM
COc1cc(-c2cc(F)cc(F)c2)c(F)cc1-n1c2c(ccc1=O)CN(S(=O)(=O)Nc1cccc(F)n1)CC2 (single isomer, unassigned) [Example 14-P, P-N-(6-fluoro-2-pyridinyl)-2-oxo-1-(2,3′,5′-trifluoro-5-methoxy-4-biphenylyl)-1,5,7,8-tetrahydro-1,6-naphthyridine-6(2H)-sulfonamide]	0.103 µM	0.026 µM	0.0124 µM
COc1cc(-c2cccc(C(F)(F)F)c2)c(F)cc1-n1c2c(ccc1=O)CN(S(=O)(=O)Nc1ccon1)CC2 (single isomer, unassigned) [Example 16-P, P-1-(2-fluoro-5-methoxy-3′-(trifluoromethyl)-4-biphenylyl)-N-3-isoxazolyl-2-oxo-1,5,7,8-tetrahydro-1,6-naphthyridine-6(2H)-sulfonamide]	0.0158 µM	0.0026 µM	0.0024 µM
COc1cc(-c2cc(F)cc(Cl)c2)c(F)cc1-n1c2c(ccc1=O)CN(S(=O)(=O)Nc1ccon1)CC2 (single isomer, unassigned) [Example 18-P, P-1-(3′-chloro-2,5′-difluoro-5-methoxy-4-biphenylyl)-N-3-isoxazolyl-2-oxo-1,5,7,8-tetrahydro-1,6-naphthyridine-6(2H)-sulfonamide]	0.0175 µM	0.0029 µM	0.0039 µM
COc1cc(-c2cccc(OC(F)F)c2)c(F)cc1-n1c2c(ccc1=O)CN(S(=O)(=O)Nc1ccon1)CC2 (single isomer, unassigned) [Example 19-P, P-1-(3′-(difluoromethoxy)-2-fluoro-5-methoxy-4-biphenylyl)-N-3-isoxazolyl-2-oxo-1,5,7,8-tetrahydro-1,6-naphthyridine-6(2H)-sulfonamide]	0.0333 µM	0.005 µM	0.0074 µM
COc1cc(-c2ccc(F)c(F)c2)c(F)cc1-n1c2c(ccc1=O)CN(S(=O)(=O)Nc1ccon1)CC2 (single isomer, unassigned) [Example 20-P, P-N-3-isoxazolyl-2-oxo-1-(2,3′,4′-trifluoro-5-methoxy-4-biphenylyl)-1,5,7,8-tetrahydro-1,6-naphthyridine-6(2H)-sulfonamide]	0.0393 µM	0.0036 µM	0.0115 µM
COc1cc(-c2ccc(C)c(F)c2)c(F)cc1-n1c2c(ccc1=O)CN(S(=O)(=O)Nc1ccon1)CC2 (single isomer, unassigned) [Example 21-P, P-1-(2,3′-difluoro-5-methoxy-4′-methyl-4-biphenylyl)-N-3-isoxazolyl-2-oxo-1,5,7,8-tetrahydro-1,6-naphthyridine-6(2H)-sulfonamide]	0.0243 µM	0.0077 µM	0.0095 µM
COc1cc(-c2ccc(F)c(C)c2)c(F)cc1-n1c2c(ccc1=O)CN(S(=O)(=O)Nc1ccon1)CC2 (single isomer, unassigned) [Example 22-P, P-1-(2,4′-difluoro-5-methoxy-3′-methyl-4-biphenylyl)-N-3-isoxazolyl-2-oxo-1,5,7,8-tetrahydro-1,6-naphthyridine-6(2H)-sulfonamide]	0.106 µM	0.0032 µM	0.008 µM
